System: Human dermal fibroblasts (HDF)
Test: In vitro wound closure (healing activity) test, area covered with cells
Assay type: cell-based
Conditions: 48 hours; O-3 0.156 mg/mL, HA 0.0017 mg/mL, DS 0.0004 mg/mL, N 0.0818 mg/mL, ZnO 0.0027 mg/mL; FIG. 4 and 5; p<0.05 where significant
Source text: Human dermal fibroblasts (HDF) were used, which were cultivated in dishes with 24 wells with a surface area of 1.99 cm^2, with a density of 7×10^4 cells/well. A mark was made in a straight line approximately 2 mm wide on the surface of the single layer of cells using a sterile plastic tip, creating an area free of cells. […]
The cells were then allowed to migrate to the center of the dish, to cover the area free of cells, in the presence of the compounds being studied, and the area covered with cells was quantified after 48 hours using the TIRF Automated Inverted Microscope—ScanR Olympus […] and a 4× objective lens (total amplification 40×). […]
To determine the healing activity of each treatment, the area covered by cells was quantified, in μm^2, before (T0 h) and after (48 h) the treatment, using image analysis using the software Image J. The results were compared with those obtained for the negative and positive controls.

Structure (SMILES): [O]=[Zn] [ZnO, Zinc oxide]
- increase in healing (area covered with cells) versus negative control: did not cause a significant increase in healing

Reference: patent publication US11077136B2, “Compositions for the skin” (BIOIBERICA, S.A.U., priority 2016, dated 2021)
